We go through 16 compounds from patent US11345711B2, “8,9-dihydroimidazo[1,2-a]pyrimido[5,4-e]pyrimidin-5(6H)-ones” (IMPACT THERAPEUTICS (SHANGHAI), INC, priority 2016, dated 2022).

One test addresses Wee1 (h) (Homo sapiens, UniProt P30291). In words: Wee1 kinase (h) detection method, [γ-33P]-ATP filter assay. It is filed as biochemical.
The next test deals with LoVo cells. In words: MTT based cell viability assay on LoVo cells. Conditions: for IC50: Homo sapiens, LoVo, 72 h, 3 d, read-out: IC50, growth inhibition of LoVo cells. The essentials: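 Inhibition of LoVo proliferation was derived as IC50 from a sigmoidal dose-response fit of cell survival. Readout was MTT (0.5 mg/mL, 4 h) with absorbance at 552/630/690 nm, after 3-day treatment at 37 °C. Eight-point series from 10 μM to 0.01 μM, DMSO control, 1% DMSO final.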

The next test deals with NCI-H1299 cells. In words: MTT based cell viability assay on NCI-H1299 cells. As to conditions: for IC50: read-out: IC50, growth inhibition of NCI-H1299 cells. The essentials: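 Viability read-out was MTT reduction (0.5 mg/mL, 4 h, absorbance 552/630/690 nm) after 3-day compound exposure at 37 °C of NCI-H1299 cells seeded at 1000 per well. Dilutions spanned 10 μM–0.01 μM in DMSO, final DMSO 1‰. Survival-versus-concentration curves were fitted sigmoidally to give IC50.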

The mark [1] stands for this setting: Homo sapiens, NCI-H1299, NCI-H1299 cells.

Molecules are shown by their SMILES. Read-outs that look alike come from different tables or passages of the source.

Sequence of Wee1 (h) (P30291 whole entry): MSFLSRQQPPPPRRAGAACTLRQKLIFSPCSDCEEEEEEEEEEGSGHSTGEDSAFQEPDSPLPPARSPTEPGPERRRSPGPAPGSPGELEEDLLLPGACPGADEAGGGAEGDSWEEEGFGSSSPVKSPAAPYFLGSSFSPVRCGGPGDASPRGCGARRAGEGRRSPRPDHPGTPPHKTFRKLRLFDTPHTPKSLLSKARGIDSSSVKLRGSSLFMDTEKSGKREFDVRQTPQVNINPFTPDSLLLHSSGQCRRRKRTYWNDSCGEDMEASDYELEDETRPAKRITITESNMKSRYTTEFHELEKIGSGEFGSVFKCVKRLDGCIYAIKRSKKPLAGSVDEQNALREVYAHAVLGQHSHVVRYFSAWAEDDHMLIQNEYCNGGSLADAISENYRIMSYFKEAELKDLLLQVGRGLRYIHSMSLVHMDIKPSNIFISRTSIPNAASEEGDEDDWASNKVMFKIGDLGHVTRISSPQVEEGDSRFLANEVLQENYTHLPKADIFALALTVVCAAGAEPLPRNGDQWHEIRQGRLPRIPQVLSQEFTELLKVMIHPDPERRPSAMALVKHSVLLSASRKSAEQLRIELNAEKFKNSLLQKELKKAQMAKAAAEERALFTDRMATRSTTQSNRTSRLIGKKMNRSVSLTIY

By IC50 is commonly meant the midpoint of a concentration-inhibition curve. Regarding `C[C@@H]1CN(c2ccc(Nc3ncc4c(n3)N3CCN=C3N(c3c(Cl)cccc3Cl)C4=O)cc2F)C[C@H](C)N1C` [Example 70, 6-(2,6-Dichlorophenyl)-2-((3-fluoro-4-((3S,5R)-3,4,5-trimethylpiperazin-1-yl)phenyl)amino)-8,9-dihydroimidazo[1,2-a]pyrimido[5,4-e]pyrimidin-5(6H)-one], the results for the “Inh. (%) of Wee1 kinase enzyme activity” value on Wee1 (h) (C 0.01 μm compound), on Wee1 (h) (C 0.1 μm compound) and on Wee1 (h) (C 1 μm compound) were 17%, 69% and 99%, respectively. For the same compound, the IC50 was 124 nM with LoVo cells and 448 nM with NCI-H1299 cells (setting [1]).

With `CN1CCN(c2ccc(Nc3ncc4c(n3)N3CCN=C3N(c3c(Cl)cccc3Cl)C4=O)cc2Cl)CC1` [Example 71, 2-((3-chloro-4-(4-methylpiperazin-1-yl)phenyl)amino)-6-(2,6-dichlorophenyl)-8,9-dihydroimidazo[1,2-a]pyrimido[5,4-e]pyrimidin-5(6H)-one], the “Inh. (%) of Wee1 kinase enzyme activity” value on Wee1 (h) (C 0.01 μm compound) was 36%; on Wee1 (h) (C 0.1 μm compound), 74%; on Wee1 (h) (C 1 μm compound), 98%. Moreover, the figures for the IC50 in the test with LoVo cells and in the test on NCI-H1299 cells (NCI-H1299 cells) were 44.3 nM and 603 nM, respectively.

As to `C[C@@H]1CN(c2ccc(Nc3ncc4c(n3)N3CCN=C3N(c3c(Cl)cccc3Cl)C4=O)cc2Cl)C[C@H](C)N1C` [Example 72, 6-(2,6-Dichlorophenyl)-2-((3-chloro-4-((3S,5R)-3,4,5-trimethylpiperazin-1-yl)phenyl)amino)-8,9-dihydroimidazo[1,2-a]pyrimido[5,4-e]pyrimidin-5(6H)-one], the “Inh. (%) of Wee1 kinase enzyme activity” value on Wee1 (h) (C 0.01 μm compound) was found to be 22%; at Wee1 (h) (C 0.1 μm compound), 75%; at Wee1 (h) (C 1 μm compound) it was 97%. In addition, the IC50 in the test with LoVo cells worked out at 59.2 nM; in the test on NCI-H1299 cells (Homo sapiens, NCI-H1299 cells), 328 nM.

Take `CN1CCN(c2ccc(Nc3ncc4c(n3)N3CCN=C3N(c3c(Cl)cccc3Cl)C4=O)cc2C(F)(F)F)CC1` [Example 73, 6-(2,6-Dichlorophenyl)-2-((4-(4-methylpiperazin-1-yl)-3-(trifluoromethyl)phenyl)amino)-8,9-dihydroimidazo[1,2-a]pyrimido[5,4-e]pyrimidin-5(6H)-one]: the “Inh. (%) of Wee1 kinase enzyme activity” value at Wee1 (h) (C 1 μm compound) turned out to be 83%. Moreover, the half-maximal inhibitory concentration (IC50) in the test with LoVo cells is 194 nM; in the test with NCI-H1299 cells (setting [1]) it was 1430 nM.

On to `C[C@@H]1CN(c2ccc(Nc3ncc4c(n3)N3CCN=C3N(c3c(Cl)cccc3Cl)C4=O)cc2C(F)(F)F)C[C@H](C)N1C` [Example 74, 6-(2,6-Dichlorophenyl)-2-((3-trifluoromethyl-4-((3S,5R)-3,4,5-trimethylpiperazin-1-yl)phenyl)amino)-8,9-dihydroimidazo[1,2-a]pyrimido[5,4-e]pyrimidin-5(6H)-one], for which the “Inh. (%) of Wee1 kinase enzyme activity” value was 15% on Wee1 (h) (C 0.01 μm compound), 61% at Wee1 (h) (C 0.1 μm compound) and 98% on Wee1 (h) (C 1 μm compound). The IC50 with LoVo cells amounted to 182 nM; in the test with NCI-H1299 cells (setting [1]) it was 708 nM.

Take `Cc1cc(Nc2ncc3c(n2)N2CCN=C2N(c2c(Cl)cccc2Cl)C3=O)ccc1N1CCN(C)CC1` [Example 75, 6-(2,6-Dichlorophenyl)-2-((3-methyl-4-(4-methylpiperazin-1-yl)phenyl)amino)-8,9-dihydroimidazo[1,2-a]pyrimido[5,4-e]pyrimidin-5(6H)-one]: the “Inh. (%) of Wee1 kinase enzyme activity” value at Wee1 (h) (C 0.01 μm compound) came out at 24%; on Wee1 (h) (C 0.1 μm compound), 80%; at Wee1 (h) (C 1 μm compound), 100%. Besides, the “inhibitory effect on the growth of LoVo cells compared with AZD1775” value with LoVo cells is reported as “stronger inhibitory effect on the growth of LoVo cells than AZD1775”. The IC50 in the test with LoVo cells amounted to 40.2 nM; with NCI-H1299 cells (setting [1]) it was 161 nM. Also, the “inhibitory effect on the growth of NCI-H1299 cells compared with AZD1775” value in the test on NCI-H1299 cells is on record as “stronger inhibitory effect on the growth of NCI-H1299 cells than AZD1775”.

Turning to `Cc1cc(Nc2ncc3c(n2)N2CCN=C2N(c2c(Cl)cccc2Cl)C3=O)ccc1N1CCN(C(C)C)CC1` [Example 76, 6-(2,6-Dichlorophenyl)-2-((4-(4-isopropylpiperazin-1-yl)-3-methylphenyl)amino)-8,9-dihydroimidazo[1,2-a]pyrimido[5,4-e]pyrimidin-5(6H)-one], the figures for the “Inh. (%) of Wee1 kinase enzyme activity” value at Wee1 (h) (C 0.01 μm compound), at Wee1 (h) (C 0.1 μm compound) and on Wee1 (h) (C 1 μm compound) were 22%, 74% and 97%, respectively. For the same compound, the IC50 in the test with LoVo cells was 48.8 nM; in the test with NCI-H1299 cells (setting [1]), 198 nM.

Regarding `Cc1cc(Nc2ncc3c(n2)N2CCN=C2N(c2c(Cl)cccc2Cl)C3=O)ccc1N1C[C@@H](C)N(C)[C@@H](C)C1` [Example 77, 6-(2,6-Dichlorophenyl)-2-((3-methyl-4-((3S,5R)-3,4,5-trimethylpiperazin-1-yl)phenyl)amino)-8,9-dihydroimidazo[1,2-a]pyrimido[5,4-e]pyrimidin-5(6H)-one], the “Inh. (%) of Wee1 kinase enzyme activity” value at Wee1 (h) (C 0.01 μm compound) is 11%; on Wee1 (h) (C 0.1 μm compound), 86%; at Wee1 (h) (C 1 μm compound), 88%. Moreover, the concentration for half-maximal inhibition (IC50) in the test with LoVo cells was found to be 52.4 nM; with NCI-H1299 cells (setting [1]), 217 nM.

Consider `Cc1cc(Nc2ncc3c(n2)N2CCN=C2N(c2c(Cl)cccc2Cl)C3=O)ccc1N1C[C@@H](C)N(C(C)C)[C@@H](C)C1` [Example 78, 6-(2,6-Dichlorophenyl)-2-((4-((3S,5R)-4-isopropyl-3,5-dimethylpiperazin-1-yl)-3-methylphenyl)amino)-8,9-dihydroimidazo[1,2-a]pyrimido[5,4-e]pyrimidin-5(6H)-one], for which the “Inh. (%) of Wee1 kinase enzyme activity” value turned out to be 29% at Wee1 (h) (C 0.01 μm compound), 77% at Wee1 (h) (C 0.1 μm compound) and 100% at Wee1 (h) (C 1 μm compound). Further, the figures for the IC50 in the test with LoVo cells and in the test on NCI-H1299 cells (setting [1]) were 41.4 nM and 149 nM, respectively.

Regarding `CN1CCn2nc(Nc3ncc4c(n3)N3CCN=C3N(c3c(Cl)cccc3Cl)C4=O)cc2C1` [Example 79, 6-(2,6-Dichlorophenyl)-2-((5-methyl-4,5,6,7-tetrahydropyrazolo[1,5-a]pyrazin-2-yl)amino)-8,9-dihydroimidazo[1,2-a]pyrimido[5,4-e]pyrimidin-5(6H)-one], the “Inh. (%) of Wee1 kinase enzyme activity” value on Wee1 (h) (C 1 μm compound) is recorded as 69%. The IC50 was > 100000 nM with LoVo cells and > 10000 nM in the test with NCI-H1299 cells (Homo sapiens, NCI-H1299 cells).

For the compound `Cc1cc(Nc2ncc3c(n2)N2CCN=C2N(c2c(Cl)cccc2C(F)(F)F)C3=O)ccc1N1CCN(C)CC1` [Example 80, 6-(2-Chloro-6-(trifluoromethyl)phenyl)-2-((3-methyl-4-(4-methylpiperazin-1-yl)phenyl)amino)-8,9-dihydroimidazo[1,2-a]pyrimido[5,4-e]pyrimidin-5(6H)-one], the “Inh. (%) of Wee1 kinase enzyme activity” value at Wee1 (h) (C 1 μm compound) is listed as 80%. Besides, the IC50 in the test on LoVo cells is 539 nM; in the test with NCI-H1299 cells (setting [1]), 978 nM.

For `Cc1cc(Nc2ncc3c(n2)N2CCN=C2N(c2c(C)cccc2Cl)C3=O)ccc1N1CCN(C)CC1` [Example 81, 6-(2-Chloro-6-methylphenyl)-2-((3-methyl-4-(4-methylpiperazin-1-yl)phenyl)amino)-8,9-dihydroimidazo[1,2-a]pyrimido[5,4-e]pyrimidin-5(6H)-one], the “Inh. (%) of Wee1 kinase enzyme activity” value came to 7% at Wee1 (h) (C 0.01 μm compound), 72% on Wee1 (h) (C 0.1 μm compound) and 89% at Wee1 (h) (C 1 μm compound). The 50% inhibitory concentration (IC50) in the test on LoVo cells came out at 135 nM; in the test on NCI-H1299 cells (setting [1]) it was 310 nM.

As to `COc1cccc(Cl)c1N1C(=O)c2cnc(Nc3ccc(N4CCN(C)CC4)c(C)c3)nc2N2CCN=C21` [Example 82, 6-(2-Chloro-6-methoxyphenyl)-2-((3-methyl-4-(4-methylpiperazin-1-yl)phenyl)amino)-8,9-dihydroimidazo[1,2-a]pyrimido[5,4-e]pyrimidin-5(6H)-one], on Wee1 (h) (C 1 μm compound), the “Inh. (%) of Wee1 kinase enzyme activity” value turned out to be 83%. Also, the IC50 in the test with LoVo cells was determined as 946 nM; with NCI-H1299 cells (Homo sapiens, NCI-H1299 cells), 1200 nM.

As to `Cc1cccc(C)c1N1C(=O)c2cnc(Nc3ccc(N4CCN(C)CC4)cc3)nc2N2CCN=C21` [Example 83, 6-(2,6-Dimethylphenyl)-2-((4-(4-methylpiperazin-1-yl)phenyl)amino)-8,9-dihydroimidazo[1,2-a]pyrimido[5,4-e]pyrimidin-5(6H)-one], the “Inh. (%) of Wee1 kinase enzyme activity” value on Wee1 (h) (C 0.01 μm compound) is given as 15%; on Wee1 (h) (C 0.1 μm compound), 59%; on Wee1 (h) (C 1 μm compound) it was 94%. Further, the IC50 in the test on LoVo cells amounted to 2900 nM; with NCI-H1299 cells (Homo sapiens, NCI-H1299 cells) it was 1440 nM.

Turning to `Cc1cccc(C)c1N1C(=O)c2cnc(Nc3ccc(N4C[C@@H](C)N(C)[C@@H](C)C4)cc3)nc2N2CCN=C21` [Example 84, 6-(2,6-Dimethylphenyl)-2-((4-((3S,5R)-3,4,5-trimethylpiperazin-1-yl)phenyl)amino)-8,9-dihydroimidazo[1,2-a]pyrimido[5,4-e]pyrimidin-5(6H)-one], the “Inh. (%) of Wee1 kinase enzyme activity” value on Wee1 (h) (C 0.01 μm compound) was 18%; at Wee1 (h) (C 0.1 μm compound), 49%; at Wee1 (h) (C 1 μm compound) it was 93%. Besides, the IC50 in the test on LoVo cells turned out to be 3060 nM; with NCI-H1299 cells (Homo sapiens, NCI-H1299 cells) it was 836 nM.

On to `CN1CCN(c2ccc(Nc3ncc4c(n3)N3CCN=C3N(c3ccc(Cl)cc3)C4=O)cc2)CC1` [Example 85, 6-(4-Chlorophenyl)-2-((4-(4-methylpiperazin-1-yl)phenyl)amino)-8,9-dihydroimidazo[1,2-a]pyrimido[5,4-e]pyrimidin-5(6H)-one], for which the “Inh. (%) of Wee1 kinase enzyme activity” value at Wee1 (h) (C 1 μm compound) is 17%. Besides, the half-inhibitory concentration (IC50) is > 100000 nM with LoVo cells and > 10000 nM in the test on NCI-H1299 cells (Homo sapiens, NCI-H1299 cells).
